# According to BindingDB's records for doi:10.1021/jm050855s (Glaxosmithkline, 2006):
# pEC50: −log10 of the molar value.
# Assay: Inhibition of HCV RNA replication in Huh7 cells
row,pEC50,Compound
1,6.56,"CC(C)CCn1c(=O)c(C2=Nc3ccccc3S(=O)(=O)N2)c(O)c2cc(N)ccc21 [6-amino-3-(1,1-dioxo-1,2-dihydrobenzo[1,2,4]thiadiazin-3-yl)-4-hydroxy-1-(3-methylbutyl)-1H-quinolin-2-one]"
2,6.80,"Nc1ccc2c(c1)c(O)c(C1=Nc3ccccc3S(=O)(=O)N1)c(=O)n2CCC1CC1 [6-Amino-1-(2-cyclopropylethyl)-3-(1,1-dioxo-1,4-dihydrobenzo[1,2,4]thiadiazin-3-]"
3,6.41,"O=c1c(C2=Nc3ccccc3S(=O)(=O)N2)c(O)c2ccccc2n1Cc1ccoc1 [3-(1,1-dioxo-1,4-dihydrobenzo[1,2,4]thiadiazin-3-yl)-1-furan-3-ylmethyl-4-hydroxy-1H-quinolin-2-one]"
4,6.82,"O=c1c(C2=Nc3ccccc3S(=O)(=O)N2)c(O)c2ccccc2n1CCC1CC1 [1-(2-cyclopropylethyl)-3-(1,1-dioxo-1,4-dihydro-1-benzo[1,2,4]-thiadiazin-3-yl)-4-hydroxy-1H-quinolin-2-one]"
5,6.58,"CC(C)CCn1c(=O)c(C2=Nc3ccccc3S(=O)(=O)N2)c(O)c2cc(F)ccc21 [3-(1,1-dioxo-1,4-dihydro-1lambda*6*-benzo[1,2,4]thiadiazin-3-yl)-6-fluoro-4-hydroxy-1-(3-methyl-butyl)-1H-quinolin-2-one]"
6,6.74,"Cc1ccc2c(c1)c(O)c(C1=Nc3ccccc3S(=O)(=O)N1)c(=O)n2CCC(C)C [3-(1,1-dioxo-1,2-dihydrobenzo[1,2,4]thiadiazin-3-yl)-4-hydroxy-6-methyl-1-(3-methylbutyl)-1H-quinolin-2-one]"
7,6.62,"O=c1c(C2=Nc3ccccc3S(=O)(=O)N2)c(O)c2ccccc2n1CC1CCC1 [1-cyclobutylmethyl-3-(1,1-dioxo-1,2-dihydrobenzo[1,2,4]thiadiazin-3-yl)-4-hydroxy-1-1H-quinolin-2-one]"
8,6.38,CC(C)CCn1c(=O)c(C2=Nc3ccccc3S(=O)(=O)N2)c(O)c2ccccc21
9,5.92,"CC(C)CCn1c(=O)c(C2=Nc3ccccc3S(=O)(=O)N2)c(O)c2cc(Cl)ccc21 [6-chloro-3-(1,1-dioxo-1,2-dihydrobenzo[1,2,4]thiadiazin-3-yl)-4-hydroxy-1-(3-methylbutyl)-1H-quinolin-2-one]"
10,6.11,"O=c1c(C2=Nc3ccccc3S(=O)(=O)N2)c(O)c2ccccc2n1-c1ccccc1 [3-(1,1-dioxo-1,2-dihydrobenzo[1,2,4]thiadiazin-3-yl)-4-hydroxy-1-phenyl-1Hquinolin-2-one]"
11,6.58,"CCOC(=O)CNc1ccc2c(c1)c(O)c(C1=Nc3ccccc3S(=O)(=O)N1)c(=O)n2CCC(C)C [[3-(1,1-dioxo-1,4-dihydrobenzo[1,2,4]thiadiazin-3-yl)-4-hydroxy-1-(3-methylbutyl)-1H-dihydroquinolin-6-ylamino]acetic acid ethyl ester]"
12,6.35,"CCCCn1c(=O)c(C2=NS(=O)(=O)c3ccccc3N2)c(O)c2ccccc21 [1-Butyl-3-(1,1-dioxo-1,4-dihydro-1lambda*6*-benzo[1,2,4]thiadiazin-3-yl)-4-hydroxy-1H-quinolin-2-one]"
13,6.42,"CC(C)CCn1c(=O)c(C2=Nc3ccccc3S(=O)(=O)N2)c(O)c2c(F)cccc21 [3-(1,1-dioxo-1,2-dihydrobenzo[1,2,4]thiadiazin-3-yl)-5-fluoro-4-hydroxy-1-(3-methylbutyl)-1H-quinolin-2-one]"
14,6.29,"CC(C)CCn1c(=O)c(C2=Nc3ccccc3S(=O)(=O)N2)c(O)c2cc(OCC(N)=O)ccc21 [4-[3-(1,1-dioxo-1,4-dihydrobenzo[1,2,4]thiadiazin-3-yl)-4-hydroxy-1-(3-methylbutyl)-2-oxo-1,2-dihydroquinolin-6-yloxy]acetamide]"
15,6.53,"CC(C)CCn1c(=O)c(C2=Nc3ccccc3S(=O)(=O)N2)c(O)c2cc(OCC#N)ccc21 [4-[3-(1,1-dioxo-1,4-dihydrobenzo[1,2,4]thiadiazin-3-yl)-4-hydroxy-1-(3-methylbutyl)-2-oxo-1,2-dihydroquinolin-6-yloxy]acetonitrile]"
16,5.60,"CC(C)CCn1c(=O)c(C2=Nc3ccccc3S(=O)(=O)N2)c(O)c2cc(NCC(=O)O)ccc21 [[3-(1,1-dioxo-1,4-dihydrobenzo[1,2,4]thiadiazin-3-yl)-4-hydroxy-1-(3-methylbutyl)-1H-dihydroquinolin-6-ylamino]acetic acid]"
